Source: the NIST ThermoML archive (doi:10.1021/je100300s)
± gives the expanded uncertainty stated by the source.

Assay: refractive index (Na D-line) (dimensionless); xn = mol fraction of the nth substance listed
Settings: 101 kPa, Liquid, Standard Abbe refractometry

CC(O)CN (stereo not drawn) [1-amino-2-propanol] + O
refractive index
Settings | 293.15 K | 298.15 K | 303.15 K | 308.15 K | 313.15 K | 318.15 K | 323.15 K | 328.15 K | 333.15 K
x1 = 0.05 | 1.35692 ± 0.00034 | 1.35622 ± 0.00034 | 1.35539 ± 0.00034 | 1.35453 ± 0.00034 | 1.35365 ± 0.00034 | 1.35269 ± 0.00034 | 1.35169 ± 0.00034 | 1.35059 ± 0.00034 | 1.35023 ± 0.00034
x1 = 0.07 | 1.36527 ± 0.00034 | 1.36437 ± 0.00034 | 1.36345 ± 0.00034 | 1.36246 ± 0.00034 | 1.36149 ± 0.00034 | 1.36047 ± 0.00034 | 1.35931 ± 0.00034 | 1.35816 ± 0.00034 | 1.35711 ± 0.00034
x1 = 0.0986 | 1.3763 ± 0.00033 | 1.37524 ± 0.00033 | 1.37416 ± 0.00033 | 1.37306 ± 0.00033 | 1.37191 ± 0.00033 | 1.37079 ± 0.00033 | 1.36955 ± 0.00033 | 1.36821 ± 0.00033 | 1.36712 ± 0.00033
x1 = 0.1993 | 1.40333 ± 0.00034 | 1.40184 ± 0.00033 | 1.40038 ± 0.00033 | 1.39868 ± 0.00033 | 1.39716 ± 0.00033 | 1.39563 ± 0.00033 | 1.39469 ± 0.00033 | 1.39247 ± 0.00033 | 1.39103 ± 0.00033
x1 = 0.3003 | 1.41934 ± 0.00034 | 1.41723 ± 0.00034 | 1.41554 ± 0.00034 | 1.41385 ± 0.00034 | 1.41214 ± 0.00034 | 1.41051 ± 0.00034 | 1.40883 ± 0.00034 | 1.4072 ± 0.0003 | 1.40563 ± 0.00034
x1 = 0.3955 | 1.42844 ± 0.00034 | 1.4268 ± 0.00034 | 1.42513 ± 0.00034 | 1.42331 ± 0.00034 | 1.42155 ± 0.00034 | 1.41987 ± 0.00034 | 1.41801 ± 0.00034 | 1.4164 ± 0.0003 | 1.4146 ± 0.00034
x1 = 0.4929 | 1.43452 ± 0.00034 | 1.43286 ± 0.00034 | 1.431 ± 0.00034 | 1.42913 ± 0.00034 | 1.4273 ± 0.00034 | 1.42548 ± 0.00034 | 1.42386 ± 0.00034 | 1.4226 ± 0.0003 | 1.42038 ± 0.00034
x1 = 0.5995 | 1.43934 ± 0.00035 | 1.4377 ± 0.00035 | 1.4359 ± 0.00035 | 1.43375 ± 0.00035 | 1.43187 ± 0.00035 | 1.43017 ± 0.00035 | 1.42857 ± 0.00035 | 1.42697 ± 0.00035 | 1.42445 ± 0.00035
x1 = 0.7002 | 1.44298 ± 0.00035 | 1.44053 ± 0.00035 | 1.43897 ± 0.00035 | 1.43685 ± 0.00035 | 1.43493 ± 0.00035 | 1.43243 ± 0.00035 | 1.43146 ± 0.00035 | 1.43006 ± 0.00035 | 1.42775 ± 0.00035
x1 = 0.8006 | 1.44474 ± 0.00036 | 1.44287 ± 0.00036 | 1.4411 ± 0.00036 | 1.43908 ± 0.00036 | 1.43715 ± 0.00036 | 1.43532 ± 0.00036 | 1.43369 ± 0.00036 | 1.43134 ± 0.00036 | 1.42949 ± 0.00036
x1 = 0.8992 | 1.44655 ± 0.00036 | 1.4447 ± 0.00036 | 1.44275 ± 0.00036 | 1.44076 ± 0.00036 | 1.43889 ± 0.00036 | 1.43691 ± 0.00036 | 1.4349 ± 0.00036 | 1.43292 ± 0.00036 | 1.43089 ± 0.00036
x1 = 1 | 1.448 ± 0.00037 | 1.44609 ± 0.00037 | 1.44409 ± 0.00037 | 1.44211 ± 0.00037 | 1.44009 ± 0.00037 | 1.43817 ± 0.00037 | 1.43631 ± 0.00037 | 1.43405 ± 0.00037 | 1.43208 ± 0.00037
